Reference: paper PMC5529018, “Discovery of novel brain permeable and G protein-biased beta-1 adrenergic receptor partial agonists for the treatment of neurocognitive disorders” (PLoS ONE, 2017)
One block for each compound: values may come before it.

Legend:
ADRB1 [1] = molecular target: T1, ADRB1 (Homo sapiens, UniProt P08588); assay: cAMP assay (HTRF), ADRB1; assay type: cell-based; parameters: expressed in transfected cells; host or cells: HEK-293; conditions: for Emax: 0.5 h, percent efficacy vs maximum response of isoproterenol, read-out: cAMP pathway ADRB1 % Iso max; for EC50 / cAMP pathway ADRB1 EC50: HEK-293 cells, geometric mean (95% confidence limits) of at least two experiments; for EC50: read-out: cAMP pathway ADRB1 EC50; for ADRB1 agonist activity (cAMP pathway), in words: compared to xamoterol (S)
T1 sequence (P08588 whole entry): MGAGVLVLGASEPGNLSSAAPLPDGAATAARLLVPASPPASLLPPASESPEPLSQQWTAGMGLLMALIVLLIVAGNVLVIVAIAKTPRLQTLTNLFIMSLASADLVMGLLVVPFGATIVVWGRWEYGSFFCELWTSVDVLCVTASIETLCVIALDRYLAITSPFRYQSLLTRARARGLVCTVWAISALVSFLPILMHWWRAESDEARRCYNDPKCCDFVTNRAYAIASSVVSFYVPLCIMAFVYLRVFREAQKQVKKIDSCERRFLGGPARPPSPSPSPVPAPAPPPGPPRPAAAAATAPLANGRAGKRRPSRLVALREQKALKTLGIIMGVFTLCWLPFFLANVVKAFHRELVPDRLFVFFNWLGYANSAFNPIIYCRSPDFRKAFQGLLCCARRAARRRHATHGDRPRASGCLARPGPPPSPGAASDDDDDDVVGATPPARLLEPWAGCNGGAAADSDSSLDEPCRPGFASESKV
Experimental: Pharmacological effects of compounds at the cAMP pathway mediated by ADRB1 were evaluated by measuring cAMP production using the homogenous time-resolved fluorescence detection method with HEK-293 cells stably expressing human recombinant ADRB1. Briefly, cells were suspended in HBSS buffer completed with 20 mM HEPES (pH 7.4) and 500 μM IBMX (3-isobutyl-1-methylxanthine) and distributed at a density of 3x10^3 cells/well. […] Following incubation, the cells were lysed and the fluorescence acceptor (D2-labeled cAMP) and fluorescence donor (anti-cAMP antibody labeled with europium cryptate) were added. […] The results were expressed as a percent of the maximum efficacy achieved with isoproterenol. Pharmacological effects of compounds at the cAMP pathway mediated by ADRB2 and ADRB3 were measured as described above using CHO cells stably expressing human recombinant ADRB2 and human SK-N-MC neurotumor cells endogenously expressing ADRB3, respectively.

ADRB1 [2] = molecular target: T1, ADRB1; assay: β-arrestin assay (PathHunter enzyme fragment complementation); assay type: cell-based; parameters: host or cells: CHO-K1 (PathHunter)
Experimental: Pharmacological activity of compounds in the β-arrestin pathway mediated by ADRB1 were evaluated using an enzyme fragment complementation method with a β‐galactosidase functional reporter. An engineered CHO-K1-ADRB1 PathHunter cell line (DiscoveRx) was used in the assay. In this cell line, the enzyme acceptor (β‐galactosidase fragment) is fused to β-arrestin and the enzyme donor (β‐galactosidase fragment) is fused to the ADRB1. Thus, activation of the ADRB1 stimulates binding of β-arrestin to the ProLink-tagged ADRB1 and forces complementation of the two enzyme fragments, resulting in the formation of an active β‐galactosidase enzyme. Briefly, CHO-K1-ADRB1 PathHunter cell lines were plated in a total volume of 20 μL cell plating reagent (DiscoveRx, 93-0563R0A) at a density of 2,500 cells/well into 384 well microplates and incubated overnight at 37°C in 5% CO2. […] Chemiluminescent signal was then read with a PerkinElmer Envision (Perkin Elmer, Inc., MA) instrument. The results were expressed as a percent of the maximum efficacy achieved with isoproterenol.

[3] = system: LPS-induced TNFα response; assay: In vivo LPS assay; parameters: species or system C57Bl/6J mice; conditions: 90 min post-LPS
Experimental: ; subcutaneous; […]; intraperitoneal; n = 4) or vehicle (5% DMSO/20%PEG400/water; intraperitoneal; n = 12) 15 min prior to LPS (50 ug/kg; intraperitoneal). A control group was injected with vehicle 15 minutes prior to saline (n = 18). Following injections, mice were single-housed. At 90 min post-LPS/saline, mice were deeply anesthetized with isoflurane and blood was collected from the right ventricle via cardiac puncture (23 g needle) into lithium heparin-containing vials (BD microtainer plasma tubes). Subsequently, brains were collected after perfusion with phosphate-buffered saline. Plasma was separated by centrifugation (11,000 rpm for 3 minutes) within 60 min of collection and stored at -80°C until analysis. The concentration of TNFα in the collected plasma was measured by ELISA (Invitrogen, KMC3012) according to the manufacturer’s instruction. The LPS-induced inflammatory response in the CNS was assessed by measuring mRNA expression for genes related to neuroimmune activation in brain tissue according to the previously reported method. Briefly, total RNA was extracted from hippocampus containing coronal sections using the RNeasy Lipid Tissue Mini Kit (Qiagen), and transcribed into cDNA (Superscript III, Invitrogen). PCR was performed in duplicate using TaqMan gene expression assays, TNFα (Mm00443258_m1), IL1b (Mm00434228_m1), IL6 (Mm00446190_m1), and glyceraldehyde-3-phosphate dehydrogenase (GAPDH; Mm99999915_g1). Fold changes of expression relative to control were determined after normalization to GAPDH. Relative quantification and fold change were calculated by the comparative CT method. Brain uptake of STD-101-D1 was determined in brain tissue. […]

[4] = molecular target: panel of CNS relevant targets, including G protein-coupled receptors and transporters; assay: Off-target binding screen, panel of CNS relevant targets; conditions: broad range of neurotransmitter transporters, ion channels and other CNS proteins; read-out: off-target affinity Ki
[5] = system: LPS-induced TNFα production in primary microglia; assay: In vitro primary microglia TNFα assay; assay type: cell-based, Sprague Dawley rat; conditions: Rattus norvegicus, 4 h, read-out: inhibition of LPS-induced TNFα production
Excerpt: Mixed glial cells were obtained from the cerebral cortex of Sprague Dawley rat pups at postnatal days 1–3. Briefly, neonates were euthanized by decapitation and their brain tissues were collected for cortex isolation. The isolated cortex was then trypsinized, triturated, and placed into tissue culture flasks in DMEM supplemented with 10% fetal bovine serum and 1% Penicillin/Streptomycin. After 10 days in vitro, microglia were harvested by gentle shaking of the growth flask, plated in a 96 well plate at a density of 30,000 cells/well, and incubated at 37°C overnight.

[6] = Pharmacokinetic study 2, 20-min post-dose collection; assay type: in vivo, Sprague-Dawley rats; conditions: rat, 10 mg/kg, 20 min post-dose
Excerpt: Two cohorts of Sprague-Dawley rats were used in two independent studies. All animals were fasted overnight before the experiment with free access to water. In study 1, a total of 18 rats were used for a 4 hr time course pharmacokinetic (PK) study. Rats were anesthetized with 3% isoflurane and catheters were implanted into the jugular and/or portal veins for compound administration and/or blood sampling at 1 to 2 days prior to the experiments as previously described. […] Four hours post-dose, rats were deeply anesthetized with isoflurane and blood samples were collected by cardiac puncture. In study 2, a total of 18 rats were used for a 20 min post-dose collection study. […] At 20 min post-dose, rats were deeply anesthetized with isoflurane and blood samples were collected by cardiac puncture. Brains were collected after perfusion with phosphate buffered saline. All plasma samples were immediately separated after collection by centrifugation (11,000 rpm for 3 minutes) and stored at −80°C until analysis. […] Tulobuterol was used as the internal standard. The flow rate was set to 0.45 ml/min. Column temperature was 25°C. […] The injection volume was 20 μl. The mass spectrometer was operated in the positive mode with multiple-reaction monitoring (MRM). […] Mobile phase A consisted of 10 mM ammonium acetate and 0.1% formic acid in LCMS grade water. Mobile phase B consisted of 10 mM ammonium acetate and 0.1% formic acid in LCMS grade acetonitrile:water 90:10% (v/v). […] Five μl of the extracted samples were injected. […] Data acquisition and analysis were performed using the Analyst 1.6.1 software (AB SCIEX, CA).

[7] = Cardiovascular studies (heart rate, blood pressure); assay type: in vivo, Sprague-Dawley rats; conditions: anesthetized rats, 3 mg/kg subcutaneous
Experimental: A polyethylene catheter (PE50) filled with heparinized saline was then inserted into the tail artery and connected to the blood pressure transducer system. After ensuring the absence of any air bubbles, 5–10 min of baseline systolic and diastolic blood pressure along with heart rate measurements were recorded using LabChart Pro (AD Instruments, CO).

[8] = cited from earlier work

decrease in potency vs xamoterol (S), cAMP ADRB1 (ADRB1 [1]): approximately 3 fold
increase in efficacy vs xamoterol (S), cAMP ADRB1 (ADRB1 [1]): approximately 2 fold
Emax (ADRB1 [1]): 104 ± 23.9%
EC50 (ADRB1 [1]): 7.9 nM
EC50 (ADRB1 [2]; CHO-K1-ADRB1 PathHunter cells, read-out: β-arrestin pathway ADRB1 EC50): 32.2 nM
β-arrestin pathway ADRB1 % Iso max (ADRB1 [2]; percent efficacy vs maximum response of isoproterenol): 36.5%
SMILES: COc1ccc(CCNCC(O)COc2ccc(O)c(O)c2)cc1OC (stereo not shown) [RO363, reference compound]

cAMP pathway ADRB1 EC50 (ADRB1 [1]): no response
SMILES: O=C(NCCNC[C@H](O)COc1cc(Cl)c(O)cc1F)N1CCOCC1 [STD-101-B4, (S)-N-(2-((3-(5-chloro-2-fluoro-4-hydroxyphenoxy)-2-hydroxypropyl)amino)ethyl)morpholine-4-carboxamide]
ADRB1 agonist activity (cAMP pathway), in words (ADRB1 [1]): abolished the agonist activity completely

Emax (ADRB1 [1]): 25.1 ± 4.7%
EC50 (ADRB1 [1]): 7.1 nM
ADRB1 agonist activity (cAMP pathway), in words (ADRB1 [1]): decrease in both potency and efficacy
SMILES: N#Cc1cc(OC[C@@H](O)CNCCNC(=O)N2CCOCC2)ccc1O [STD-101-B6, (S)-N-(2-((3-(3-cyano-4-hydroxyphenoxy)-2-hydroxypropyl)amino)ethyl)morpholine-4-carboxamide]

cAMP pathway ADRB1 EC50 (ADRB1 [1]): no response
SMILES: N#Cc1cc(OC[C@@H](O)CNCCNC(=O)N2CCOCC2)c(F)cc1O [STD-101-B8, (S)-N-(2-((3-(5-cyano-2-fluoro-4-hydroxyphenoxy)-2-hydroxypropyl)amino)ethyl)morpholine-4-carboxamide]
ADRB1 agonist activity (cAMP pathway), in words (ADRB1 [1]): abolished the agonist activity completely

cAMP pathway ADRB1 EC50 (ADRB1 [1]): no response
ADRB1 agonist activity (cAMP pathway), in words (ADRB1 [1]): inactive
SMILES: O=C(NCCNC[C@H](O)COc1cccc2c(O)cccc12)N1CCOCC1 [STD-101-E, (S)-N-(2-((2-hydroxy-3-((5-hydroxynaphthalen-1-yl)oxy)propyl)amino)ethyl)morpholine-4-carboxamide]

Ki [4]: > 10000 nM
SMILES: O=C(NCCNC[C@H](O)COc1ccc(O)cc1)N1CCOCC1 [Xamoterol (S)]
LPS-induced systemic (plasma) TNFα response ([3]; 3 mg/kg pre-treatment 15 min prior to LPS): markedly inhibited
inhibition at 10 µM [5]: ~55%

SMILES: O=C(NCCNCC(O)COc1ccc(O)cc1)N1CCOCC1 (stereo not shown) [Xamoterol, reference compound]
CNS inflammatory markers after LPS ([3]; 3 mg/kg subcutaneous pre-treatment): Significant effects of xamoterol were not observed
plasma concentration after PO as percent of that after IP [6]: 0.2%
plasma concentration after PO as percent of that after IV [6]: 0.7%
decrease in blood pressure [7]: 9%
increase in heart rate [7]: 4%
oral bioavailability in humans [8]: 5%

SMILES: CC(C)NCC(O)c1ccc(O)c(O)c1 (stereo not shown) [isoproterenol]
inhibition at 10 µM [5]: ~80%
